Measured values as given in ChEMBL document CHEMBL4052806, “Chemical constituents from the rare mushroom Calvatia nipponica inhibit the promotion of angiogenesis in HUVECs” (Bioorg Med Chem Lett, 2017).
Active and inactive are the calls of the source. No cut-off for these calls is given here.

Legend:
HUVEC [1] = experiment: Cytotoxicity against HUVEC assessed as reduction in cell viability after 24 hrs by MTT assay; type: cell-based; conditions: human
HUVEC [2] = experiment: Cytotoxicity against HUVEC assessed as reduction in cell viability up to 12.5 ug/ml after 24 hrs by MTT assay; type: cell-based; conditions: human
HUVEC [3] = experiment: Cytotoxicity against HUVEC assessed as reduction in cell viability at 100 ug/ml after 24 hrs by MTT assay relative to control; type: cell-based; conditions: human
HUVEC [4] = experiment: Antiangiogenic activity in HUVEC assessed as inhibition of tube formation on matrigel at 12.5 ug/ml after 24 hrs by Mayer's hematoxylin staining based light microscopy relative to control; type: functional; conditions: Homo sapiens
HUVEC [5] = experiment: Antiangiogenic activity in HUVEC assessed as inhibition of tube formation on matrigel after 24 hrs by Mayer's hematoxylin staining based light microscopy; type: functional, cell-based; conditions: Homo sapiens
HUVEC [6] = experiment: Down regulation of VEGF expression in HUVEC at 6.25 ug/ml after 24 hrs by Western blot analysis relative to control; type: functional, Homo sapiens
HUVEC [7] = experiment: Down regulation of VEGF expression in HUVEC at 12.5 ug/ml after 24 hrs by Western blot analysis relative to control; type: functional, Homo sapiens
[8] = target: T1, MAP kinase p38 (Homo sapiens) (UniProt O15264+Q15759+Q16539+P53778); experiment: Inhibition of p38 phosphorylation in HUVEC at 6.25 ug/ml after 24 hrs by Western blot analysis relative to control
[9] = target: T1, MAP kinase p38 (Homo sapiens); experiment: Inhibition of p38 phosphorylation in HUVEC at 12.5 ug/ml after 24 hrs by Western blot analysis relative to control
Homo sapiens [10] = species: Homo sapiens; experiment: Inhibition of ERK phosphorylation in HUVEC at 6.25 ug/ml after 24 hrs by Western blot analysis relative to control
Homo sapiens [11] = species: Homo sapiens; experiment: Inhibition of ERK phosphorylation in HUVEC at 12.5 ug/ml after 24 hrs by Western blot analysis relative to control

| fold change (FC) [8] | fold change (FC) [9] | fold change (FC) (Homo sapiens [10]) | fold change (FC) (Homo sapiens [11]) | Structure (SMILES) | Activity (HUVEC [1]) | Activity (HUVEC [2]) | Activity (HUVEC [3]) [%] | inhibition at 12.5 µg/mL (HUVEC [4]) [%] | inhibition (HUVEC [5]) | fold change (FC) (HUVEC [6]) | fold change (FC) (HUVEC [7]) |
| --- | --- | --- | --- | --- | --- | --- | --- | --- | --- | --- | --- |
| – | – | – | – | CC(=O)Nc1ccc(O)cc1 [ACETAMINOPHEN] | Dose-dependent effect | Non-Toxic | 25.93 | 10.5 | – | – | – |
| – | – | – | – | O=C1OCc2cc(O)cc(O)c21 | – | – | – | – | inactive | – | – |
| – | – | – | – | OCc1cc(O)cc(O)c1 | Dose-dependent effect | Non-Toxic | 25.15 | – | inactive | – | – |
| – | – | – | – | NC(=O)c1cccnc1 [NIACINAMIDE] | Dose-dependent effect | Non-Toxic | 6.07 | 11.3 | – | – | – |
| – | – | – | – | CNc1ccccc1C(=O)O | Dose-dependent effect | Non-Toxic | 24.55 | – | inactive | – | – |
| – | – | – | – | CN(C)c1ccccc1C(=O)O | Dose-dependent effect | Non-Toxic | 25.82 | – | inactive | – | – |
| 0.87 | 0.71 | 1.05 | 0.9 | O=C1NCc2c(O)cc(O)cc21 | Dose-dependent effect | Non-Toxic | 23.13 | 32.6 | – | 0.9 | 0.72 |
